According to patent US6649201B2, “Eggshell derived monocalcium and dicalcium phosphate” (Board of Regents of University of Nebraska, priority 2001, dated 2003):

Assay: 21-day starter chick feeding study: relative bioavailability of phosphate sources (slope ratio assay)
Settings: in vivo
Text: (CDP) source in starter chick diets. […] Each dietary treatment was replicated six times with eleven chicks per pen during a 21-day experimental period. […] A slope ratio assay using linear regression analysis was used to determine relative bioavailabilities.

eggshell derived monocalcium phosphate [EDMCP]
availability of the phosphate fraction to the animal vs currently available commercial products: more available
